Measured values as given in the NIST ThermoML archive (doi:10.1016/j.jct.2013.11.005).
Numbers after ± are expanded uncertainties.

Details: for viscosity / mass density: 101.33 kPa, Liquid; for viscosity: Falling or rolling sphere viscometry; for mass density: Vibrating tube method; for surface tension liquid-gas: Pendant drop shape

CCn1cc[n+](C)c1.N#C[S-] [1-ethyl-3-methylimidazolium thiocyanate]
viscosity (293.15 K): 28.27 ± 0.67 mPa·s
mass density (293.15 K): 1120.02 ± 1.1 kg/m3
surface tension liquid-gas (298.15 K): 54.1 ± 0.8 mN/m
viscosity (298.15 K): 23.79 ± 0.56 mPa·s
mass density (298.15 K): 1116.97 ± 1.1 kg/m3
surface tension liquid-gas (303.15 K): 53.6 ± 0.8 mN/m
viscosity (303.15 K): 20.25 ± 0.48 mPa·s
mass density (303.15 K): 1113.91 ± 1.1 kg/m3
surface tension liquid-gas (313.15 K): 52.9 ± 0.8 mN/m
viscosity (313.15 K): 15.13 ± 0.36 mPa·s
mass density (313.15 K): 1107.95 ± 1.1 kg/m3
surface tension liquid-gas (323.15 K): 52.1 ± 0.8 mN/m
viscosity (323.15 K): 11.73 ± 0.28 mPa·s
mass density (323.15 K): 1101.84 ± 1.1 kg/m3
viscosity (333.15 K): 9.36 ± 0.22 mPa·s
mass density (333.15 K): 1095.89 ± 1 kg/m3
viscosity (343.15 K): 7.65 ± 0.18 mPa·s
mass density (343.15 K): 1089.98 ± 1 kg/m3
viscosity (353.15 K): 6.38 ± 0.15 mPa·s
mass density (353.15 K): 1084.12 ± 1 kg/m3

CCCCn1cc[n+](C)c1.N#C[S-] [1-butyl-3-methylimidazolium thiocyanate]
viscosity (293.15 K): 76.08 ± 2 mPa·s
mass density (293.15 K): 1073.99 ± 0.99 kg/m3
surface tension liquid-gas (298.15 K): 47 ± 0.7 mN/m
viscosity (298.15 K): 59.81 ± 1.4 mPa·s
mass density (298.15 K): 1071.04 ± 0.98 kg/m3
surface tension liquid-gas (303.15 K): 46.6 ± 0.7 mN/m
viscosity (303.15 K): 47.84 ± 1.1 mPa·s
mass density (303.15 K): 1068.08 ± 0.98 kg/m3
surface tension liquid-gas (313.15 K): 45.7 ± 0.7 mN/m
viscosity (313.15 K): 32.2 ± 0.77 mPa·s
mass density (313.15 K): 1062.21 ± 0.97 kg/m3
surface tension liquid-gas (323.15 K): 44.8 ± 0.7 mN/m
viscosity (323.15 K): 22.97 ± 0.54 mPa·s
mass density (323.15 K): 1056.39 ± 0.95 kg/m3
viscosity (333.15 K): 17.12 ± 0.4 mPa·s
mass density (333.15 K): 1050.61 ± 0.94 kg/m3
viscosity (343.15 K): 13.2 ± 0.31 mPa·s
mass density (343.15 K): 1044.87 ± 0.93 kg/m3
viscosity (353.15 K): 10.5 ± 0.25 mPa·s
mass density (353.15 K): 1039.17 ± 0.92 kg/m3
